Among the data in ChEMBL document CHEMBL1142207, “Aspirin antagonism in isoniazid treatment of tuberculosis in mice” (2007) are Activity and Log10 cfu values, retold here.

Assay [1] concerns Mycobacterium tuberculosis. Kind of assay: Clearance of Mycobacterium tuberculosis H37Rv in BALB/c mouse lung at 25 mg/kg, po five times/week after 1 month relative to control. In kind it is functional, organism-based. On the set-up: dose 25 mg/kg.
Assay [2] relates to Mycobacterium tuberculosis. Kind of assay: Clearance of Mycobacterium tuberculosis H37Rv in BALB/c mouse spleen at 25 mg/kg, po five times/week after 1 month relative to control. In kind it is functional, organism-based. Also on record: dose 25 mg/kg.
The subject of assay [3] is Mycobacterium tuberculosis. Put plainly: Decrease in spleen infection of BALB/c mouse infected with Mycobacterium tuberculosis H37Rv at 10 mg/kg, po five times/week after 1 month relative to control. In kind it is functional.
The test system of assay [4] is Mycobacterium tuberculosis. Put plainly: Decrease in spleen infection of BALB/c mouse infected with Mycobacterium tuberculosis H37Rv at 20 mg/kg, po five times/week after 1 month relative to control. The assay is classed as functional.
Assay [5] relates to Mycobacterium tuberculosis. Put plainly: Decrease in spleen infection of BALB/c mouse infected with Mycobacterium tuberculosis H37Rv at 40 mg/kg, po five times/week after 1 month relative to control. The assay is classed as functional.

Active and inactive are the calls of the source. No cut-off for these calls is given here.

For `NNC(=O)c1ccncc1`, the result in assay [1] and in assay [2] was Active.

In the case of `CC(=O)Oc1ccccc1C(=O)O` [ASPIRIN], the values for the Log10 cfu in assay [3], in assay [4] and in assay [5] were 3.48, 4.55 and 4.38, respectively.
